Test results: patent publication US12485118B2, “Combinations of GLP-1R and THRβ agonists and methods of use thereof” (Terns Pharmaceuticals, Inc., priority 2023, dated 2025)
Entries after “also recorded” stand apart in the source; their conditions may differ. Read-outs that look alike come from different tables or passages of the source.

Columns and labels:
DIO hGLP-1R mice = test: Compound 9 in combination with orforglipron in DIO hGLP-1R mice: body weight, food intake, body mass composition, subcutaneous fat, liver weight; assay type: in vivo, mouse; details: Compound 9 3 mg/kg, orforglipron 0.2 and 2 mg/kg, combination 3 + 0.2 mg/kg; for body weight changes from baseline over time: PO QD 21 days; for terminal subcutaneous fat: study termination
Experimental: DIO hGLP-1R mice were housed at room temperature (21-25° C.) with a relative humidity of 40-70%. Temperature and relative humidity were monitored and recorded twice daily. An electronic time-controlled lighting system was used to provide a 12 h light/12 h dark cycle, 19:00 pm-7:00 am, lights out and enrichment toys were provided. The mice were fed high fat diet (HFD, Research Diets 12492, 60% kca, 1% fat) for >50 weeks to induce obesity. Mice were acclimated to once-daily (QD) oral dosing (per os, PO) for 1 week with body weight and food intake measured on consecutive 4 days prior to dosing start (Day 1). Body mass composition was measured by EchoMRI (Bruker Minispec LF90II) on Day 0 and mice were randomized to treatment groups (Table 5-1) based on baseline body weight, food intake, and body composition.
Body mass composition was assessed on Day 19. […] Subcutaneous fat was collected and weighed at study termination.

humans = details: cited from earlier work
[1] = Plasma pharmacokinetics of Compound 9 and orforglipron in DIO hGLP-1R mice; details: for AUC(0-t) / Cmax: hGLP-1R transgenic (expressing human GLP-1R)
Experimental: Test compounds were formulated in vehicle (10% [v/v]Solutol HS15+90% [v/v]saline) and mice were treated QD PO for 21 days with vehicle, Compound 9 (3 mg/kg), orforglipron (0.2 and 2 mg/kg), and Compound 9 (3 mg/kg) in combination with orforglipron (0.2 mg/kg). Body weight and food intake were measured daily, and mice were maintained on HFD throughout the study period. On Day 20 of the study, plasma samples were collected at predose (O), 2-, 4-, 8-, and 24-hours postdose for pharmacokinetic analyses of Compound 9, orforglipron, and combination treatment groups. Body mass composition was assessed on Day 19. Liver was collected and weighed at study termination and portions were preserved for steatosis assessment by histology. Subcutaneous fat was collected and weighed at study termination. A sample of subcutaneous fat tissue was assessed for UCP-1 expression by qPCR and Western blot analyses.

rodent GLP-1R = target: T1, rodent GLP-1R (Mus musculus, UniProt O35659); details: cited from earlier work
T1 sequence (O35659 22-463): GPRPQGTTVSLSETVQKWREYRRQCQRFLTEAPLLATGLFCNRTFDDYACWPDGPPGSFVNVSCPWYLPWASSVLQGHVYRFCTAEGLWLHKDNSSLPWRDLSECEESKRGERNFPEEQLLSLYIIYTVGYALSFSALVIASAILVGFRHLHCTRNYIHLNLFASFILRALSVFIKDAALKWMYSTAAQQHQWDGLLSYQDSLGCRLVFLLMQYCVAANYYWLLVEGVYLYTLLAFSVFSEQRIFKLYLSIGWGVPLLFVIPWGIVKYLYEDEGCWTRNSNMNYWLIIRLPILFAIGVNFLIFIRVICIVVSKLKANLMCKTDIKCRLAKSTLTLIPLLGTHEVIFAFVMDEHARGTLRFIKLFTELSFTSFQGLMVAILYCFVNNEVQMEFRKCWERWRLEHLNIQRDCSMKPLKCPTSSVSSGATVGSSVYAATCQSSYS

male DIO mice [2] = test: Energy expenditure (heat production, RER, oxygen consumption) in male DIO mice at thermoneutrality; assay type: in vivo, mouse
Experimental: (§1) Male C57BL/6JRj mice (5 weeks of age, n=70) were fed a high fat diet (n=60, 60% HFD, D12492, Ssniff) for 24 weeks, or a lean-chow diet (n=10, Altromin 1324) before treatment start. HFD animals were randomized during week -1 based on body weight, glucose levels and fat tissue mass into 5 treatments groups. Lean mice (group 1) were treated with vehicle (QD+QD, PO+SC) and DIO mice were treated (QD+QD, PO+SC) as follow: group 2 received vehicle (PO+SC), group 3 received Compound 9 6 mg/kg, PO+vehicle (SC), group 4 received Semaglutide (30 nmol/kg, SC)+vehicle (PO), group 5 received Compound 9 (6 mg/kg, PO)+Semaglutide (30 nmol/kg, SC) and group 6 received Tirzepatide (30 nmol/kg, SC)+vehicle (PO). Body weight, food and water intake were measured daily from day -3, body composition (EchoMRI) was measured during week -1 and week 6; energy expenditure was assessed at study day 5-7 and at study day 34-36. Fasting blood glucose and insulin levels were measured at baseline and termination, while an oral glucose tolerance test was performed at week 4. At termination, the M gastrocnemius muscle was weighted and collected for RNAseq analysis, while plasma, brain, liver, BAT, epidydimal and subcutaneous WAT depots were collected for sponsor.

male DIO mice [3] = test: Glycemic control: oral glucose tolerance test and plasma insulin in male DIO mice at thermoneutrality; assay type: in vivo, mouse; details: week 6
Experimental: On the day of the OGTT, random blood glucose and body weight of the mice are measured, mice are dosed with corresponding compounds or vehicle in the morning before fasting, then the mice are fasted for 6 hours, basal fasting glucose is measured by tail vein nick thereafter. Glucose is orally gavaged with 2 g/kg at a dose volume of 5 mL/kg. Blood glucose levels are measured at 0 (pre-dose), 15-, 30-, 60-, and 120-min post glucose dosing. The second dose is administrated after OGTT treatment.
Male C57BL/6JRj mice (5 weeks of age, n=70) were fed a high fat diet (n=60, 60% HFD, D12492, Ssniff) for 24 weeks, or a lean-chow diet (n=10, Altromin 1324) before treatment start. HFD animals were randomized during week -1 based on body weight, glucose levels and fat tissue mass into 5 treatments groups. […] Body weight, food and water intake were measured daily from day -3, body composition (EchoMRI) was measured during week -1 and week 6; energy expenditure was assessed at study day 5-7 and at study day 34-36. Fasting blood glucose and insulin levels were measured at baseline and termination, while an oral glucose tolerance test was performed at week 4. […]

male DIO mice [4] = test: 6 weeks of Compound 9 alone and in combination with semaglutide: body weight, food intake, body composition (EchoMRI) in male DIO mice at thermoneutrality; assay type: in vivo, mouse; details: Compound 9 6 mg/kg PO combined with Semaglutide 30 nmol/kg SC
Experimental: as §1

[5] = system: uncoupling protein 1 (UCP-1) expression in subcutaneous adipose tissue; test: UCP-1 expression in subcutaneous adipose tissue of DIO mice; assay type: in vivo, mouse
Experimental: Body weight, food and water intake are measured daily. Body composition is measured using EchoMRI. Subcutaneous fat is collected and weighed at study termination.
as §1, with “At termination, the M gastrocnemius muscle was weighted and collected for RNAseq analysis, while plasma, brain, liver, BAT, epidydimal and subcutaneous WAT depots were collected for sponsor.” left out

**Q.** What does the source list for Cc1cc(-n2nc3c(c2-n2ccn(-c4ccc5c(cnn5C)c4F)c2=O)[C@H](C)N(C(=O)c2cc4cc([C@H]5CCOC(C)(C)C5)ccc4n2[C@@]2(c4noc(=O)[nH]4)C[C@@H]2C)CC3)cc(C)c1F [orforglipron]?
**A.** fat mass change from baseline (DIO hGLP-1R mice; Day 19, PO QD): dose-dependent decrease in fat mass; body weight changes from baseline over time (DIO hGLP-1R mice): dose-dependent body weight decreases over time; daily food intake (DIO hGLP-1R mice; PO QD): profoundly reduced in a dose-dependent manner during the first few days; terminal subcutaneous fat (DIO hGLP-1R mice; PO QD): dose-dependent decrease in subcutaneous fat, although only the high dose was significantly different from vehicle treatment; occurrence of total adverse events compared to placebo, OR (humans; 12 mg daily dose): 2.49 (95% CI: 1.25, 4.98); occurrence of total adverse events compared to placebo, OR (humans; 24 mg daily dose): 2.23 (95% CI: 1.13, 4.43); occurrence of total adverse events compared to placebo, OR (humans; 36 mg daily dose): 2.04 (95% CI: 1,08,3.84); change in body weight at week 26 (humans; 45 mg daily compared to 12, 24 or 36 mg/day): highest change in body weight; occurrence of total adverse events compared to placebo, OR (humans; 45 mg daily dose): 2.96 (95% CI: 1.41, 6.21); total adverse events compared to placebo (humans; all doses (12, 24, 36, 45 mg daily)): significantly higher; unbound exposure AUC24h,u ([1]; 0.2 mg/kg daily in mice, equivalent to 6 mg/day in humans): ~0.300 ng·h/mL; unbound exposure AUC24h,u ([1]; 2 mg/kg daily in mice, equivalent to 45 mg/day in humans): ~1.60 ng·h/mL; AUC(0-t) ([1]; mouse, in vivo, po, 0.2 mg/kg): 543 ng·h/mL; Cmax ([1]; mouse, in vivo, po, 0.2 mg/kg): 47.4 ng/mL; AUC(0-t) ([1]; mouse, in vivo, po, 2 mg/kg): 2670 ng·h/mL; Cmax ([1]; mouse, in vivo, po, 2 mg/kg): 251 ng/mL; exposure (dose proportionality, effect of combination) ([1]; mouse, in vivo, po): increased in a less than dose-proportional manner; exposure (dose proportionality, effect of combination) ([1]; plasma, Day 20, PO QD): largely unaffected when dosed in combination with Compound 9; activity on rodent GLP-1R (rodent GLP-1R): inactive

**Q.** Which “fat mass change from baseline” value (DIO hGLP-1R mice; Day 19, PO QD) does the source give for N#Cc1nn(-c2cc(Cl)c(Oc3n[nH]c(=O)c4ccccc34)c(Cl)c2)c(=O)[nH]c1=O [Compound 9, 2-(3,5-dichloro-4-((4-oxo-3,4-dihydrophthalazin−1-yl)oxy)phenyl)-3,5-dioxo-2,3,4,5-tetrahydro-1,2,4-triazine-6-carbonitrile] here?
**A.** remained relatively unchanged

**Q.** And the “lean mass change from baseline” value (DIO hGLP-1R mice; Day 19, PO QD)?
**A.** negligible

**Q.** And the “body weight changes from baseline over time” value (DIO hGLP-1R mice)?
**A.** remained relatively unchanged; also recorded: comparable to a 10-fold higher dose of orforglipron as monotherapy

**Q.** And the terminal subcutaneous fat (DIO hGLP-1R mice; PO QD)?
**A.** not significantly different from mice treated with vehicle

**Q.** What about the heat production (male DIO mice [2]; after 5 weeks of treatment) of the same compound?
**A.** increased both dark and light-phase heat production

**Q.** And the “energy expenditure (EE)” value (male DIO mice [2]; assessed after week 4)?
**A.** restored energy expenditure to normal (DIO Veh) levels when combined with semaglutide

**Q.** What about the plasma insulin level (male DIO mice [3]) of the same compound?
**A.** increased

**Q.** What about the average food intake (male DIO mice [4]) of the same compound?
**A.** normalized semaglutide-induced reduction in food intake

**Q.** And the AUC(0-t) ([1]; mouse, in vivo, po, 3 mg/kg)?
**A.** 19000 ng·h/mL

**Q.** And the Cmax ([1]; mouse, in vivo, po, 3 mg/kg)?
**A.** 2480 ng/mL

**Q.** What about the “exposure (dose proportionality, effect of combination)” value ([1]; mouse, in vivo, po) of the same compound?
**A.** unaffected when dosed in combination with orforglipron

**Q.** What about the “uncoupling protein 1 (UCP-1) expression” value [5] of the same compound?
**A.** partially restored the obesity induced lowering of UCP-1
